# In PubChem BioAssay (NCI):
#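 How tested: cells in 96-well plates exposed to compound for 48 hours at five concentrations. At the GI50, growth is halved. TGI: total growth inhibition.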
# Assays:
# Assay in all cases: NCI-60 cell line screen, 48 h
# M14 melanoma = tested on: M14 melanoma
# RXF 393 renal = tested on: RXF 393 renal
# NCI-H522 lung = tested on: NCI-H522 lung
# SF-295 CNS = tested on: SF-295 CNS
# HS 578T breast = tested on: HS 578T breast
# HL-60(TB) leukemia = tested on: HL-60(TB) leukemia
# HOP-92 NSCLC = tested on: HOP-92 NSCLC
# OVCAR-3 ovarian = tested on: OVCAR-3 ovarian
# CCRF-CEM leukemia = tested on: CCRF-CEM leukemia
# NCI-H23 lung = tested on: NCI-H23 lung
# SK-MEL-5 melanoma = tested on: SK-MEL-5 melanoma
# MDA-MB-435 = tested on: MDA-MB-435
# MDA-MB-231 breast = tested on: MDA-MB-231 breast
# SNB-19 CNS = tested on: SNB-19 CNS
# U251 CNS = tested on: U251 CNS
# EKVX NSCLC = tested on: EKVX NSCLC
# MCF7 breast = tested on: MCF7 breast
# IGROV1 ovarian = tested on: IGROV1 ovarian
# NCI-H460 lung = tested on: NCI-H460 lung
# SN12C renal = tested on: SN12C renal
# UACC-62 melanoma = tested on: UACC-62 melanoma
# ACHN renal = tested on: ACHN renal
# HCT-15 colon = tested on: HCT-15 colon
# MALME-3M melanoma = tested on: MALME-3M melanoma
# A498 renal = tested on: A498 renal
# LOX IMVI melanoma = tested on: LOX IMVI melanoma
# SNB-75 CNS = tested on: SNB-75 CNS
# SF-539 CNS = tested on: SF-539 CNS
# UACC-257 melanoma = tested on: UACC-257 melanoma
# SR leukemia = tested on: SR leukemia
# NCI/ADR-RES ovarian = tested on: NCI/ADR-RES ovarian
# PC-3 prostate = tested on: PC-3 prostate
# K-562 leukemia = tested on: K-562 leukemia
# MOLT-4 leukemia = tested on: MOLT-4 leukemia
# SF-268 CNS = tested on: SF-268 CNS
# OVCAR-5 ovarian = tested on: OVCAR-5 ovarian
# CAKI-1 renal = tested on: CAKI-1 renal
# T-47D breast = tested on: T-47D breast
# SW-620 colon = tested on: SW-620 colon
# SK-OV-3 ovarian = tested on: SK-OV-3 ovarian
# SK-MEL-2 melanoma = tested on: SK-MEL-2 melanoma
# OVCAR-4 ovarian = tested on: OVCAR-4 ovarian
# DU-145 prostate = tested on: DU-145 prostate
# 786-0 renal = tested on: 786-0 renal
# HCC-2998 colon = tested on: HCC-2998 colon
# HOP-62 NSCLC = tested on: HOP-62 NSCLC
# OVCAR-8 ovarian = tested on: OVCAR-8 ovarian
# KM12 colon = tested on: KM12 colon
# UO-31 renal = tested on: UO-31 renal
# HCT-116 colon = tested on: HCT-116 colon
# COLO 205 colon = tested on: COLO 205 colon
# SK-MEL-28 melanoma = tested on: SK-MEL-28 melanoma
# NCI-H226 lung = tested on: NCI-H226 lung
# A549 NSCLC = tested on: A549 NSCLC
# RPMI-8226 leukemia = tested on: RPMI-8226 leukemia
# HT29 colon = tested on: HT29 colon
# BT-549 breast = tested on: BT-549 breast
smiles,measurement,setting,value
O=C(O)COc1ccc(OCC(=O)O)cc1,GI50,M14 melanoma,847 nM
same,TGI,M14 melanoma,12.3 µM
same,GI50,RXF 393 renal,970 nM
same,TGI,RXF 393 renal,4.64 µM
same,GI50,NCI-H522 lung,302 nM
same,TGI,NCI-H522 lung,3.22 µM
same,GI50,SF-295 CNS,445 nM
same,TGI,SF-295 CNS,11.3 µM
same,GI50,HS 578T breast,1970 nM
same,TGI,HS 578T breast,13.6 µM
same,GI50,HL-60(TB) leukemia,159 nM
same,TGI,HL-60(TB) leukemia,873 nM
same,GI50,HOP-92 NSCLC,319 nM
same,TGI,HOP-92 NSCLC,7.59 µM
same,GI50,OVCAR-3 ovarian,2500 nM
same,TGI,OVCAR-3 ovarian,36.3 µM
same,GI50,CCRF-CEM leukemia,200 nM
same,TGI,CCRF-CEM leukemia,21 µM
same,GI50,NCI-H23 lung,513 nM
same,TGI,NCI-H23 lung,3.09 µM
same,GI50,SK-MEL-5 melanoma,362 nM
same,TGI,SK-MEL-5 melanoma,2310 nM
same,GI50,MDA-MB-435,3.36 µM
same,TGI,MDA-MB-435,16.4 µM
same,GI50,MDA-MB-231 breast,3.06 µM
same,TGI,MDA-MB-231 breast,16.2 µM
same,GI50,SNB-19 CNS,273 nM
same,TGI,SNB-19 CNS,11.3 µM
same,GI50,U251 CNS,251 nM
same,TGI,U251 CNS,2470 nM
same,GI50,EKVX NSCLC,6.43 µM
same,TGI,EKVX NSCLC,74.4 µM
same,GI50,MCF7 breast,56.7 nM
same,TGI,MCF7 breast,10.7 µM
same,GI50,IGROV1 ovarian,1800 nM
same,TGI,IGROV1 ovarian,33 µM
same,GI50,NCI-H460 lung,60.9 nM
same,TGI,NCI-H460 lung,1510 nM
same,GI50,SN12C renal,275 nM
same,TGI,SN12C renal,18 µM
same,GI50,UACC-62 melanoma,326 nM
same,TGI,UACC-62 melanoma,2900 nM
same,GI50,ACHN renal,522 nM
same,TGI,ACHN renal,4.02 µM
same,GI50,HCT-15 colon,9.43 µM
same,TGI,HCT-15 colon,> 100 µM
same,GI50,MALME-3M melanoma,571 nM
same,TGI,MALME-3M melanoma,10.5 µM
same,GI50,A498 renal,1060 nM
same,TGI,A498 renal,4.87 µM
same,GI50,LOX IMVI melanoma,276 nM
same,TGI,LOX IMVI melanoma,2340 nM
same,GI50,SNB-75 CNS,684 nM
same,TGI,SNB-75 CNS,10.1 µM
same,GI50,SF-539 CNS,365 nM
same,TGI,SF-539 CNS,5.06 µM
same,GI50,UACC-257 melanoma,2530 nM
same,TGI,UACC-257 melanoma,18.5 µM
same,GI50,SR leukemia,61.4 nM
same,TGI,SR leukemia,12.7 µM
same,GI50,NCI/ADR-RES ovarian,56.6 µM
same,TGI,NCI/ADR-RES ovarian,> 100 µM
same,GI50,PC-3 prostate,2030 nM
same,TGI,PC-3 prostate,17.2 µM
same,GI50,K-562 leukemia,2490 nM
same,TGI,K-562 leukemia,16.6 µM
same,GI50,MOLT-4 leukemia,55.7 nM
same,TGI,MOLT-4 leukemia,23.5 µM
same,GI50,SF-268 CNS,584 nM
same,TGI,SF-268 CNS,13.5 µM
same,GI50,OVCAR-5 ovarian,1430 nM
same,TGI,OVCAR-5 ovarian,24.8 µM
same,GI50,CAKI-1 renal,22.2 µM
same,TGI,CAKI-1 renal,> 100 µM
same,GI50,T-47D breast,449 nM
same,TGI,T-47D breast,9.31 µM
same,GI50,SW-620 colon,312 nM
same,TGI,SW-620 colon,12.8 µM
same,GI50,SK-OV-3 ovarian,644 nM
same,TGI,SK-OV-3 ovarian,19.8 µM
same,GI50,SK-MEL-2 melanoma,3.28 µM
same,TGI,SK-MEL-2 melanoma,15.9 µM
same,GI50,OVCAR-4 ovarian,2960 nM
same,TGI,OVCAR-4 ovarian,20.3 µM
same,GI50,DU-145 prostate,325 nM
same,TGI,DU-145 prostate,12.7 µM
same,GI50,786-0 renal,456 nM
same,TGI,786-0 renal,3.62 µM
same,GI50,HCC-2998 colon,1500 nM
same,TGI,HCC-2998 colon,6.82 µM
same,GI50,HOP-62 NSCLC,408 nM
same,TGI,HOP-62 NSCLC,8.53 µM
same,GI50,OVCAR-8 ovarian,911 nM
same,TGI,OVCAR-8 ovarian,10.8 µM
same,GI50,KM12 colon,1710 nM
same,TGI,KM12 colon,10.7 µM
same,GI50,UO-31 renal,5.4 µM
same,TGI,UO-31 renal,27.5 µM
same,GI50,HCT-116 colon,612 nM
same,TGI,HCT-116 colon,10.3 µM
same,GI50,COLO 205 colon,1050 nM
same,TGI,COLO 205 colon,13.4 µM
same,GI50,SK-MEL-28 melanoma,3.36 µM
same,TGI,SK-MEL-28 melanoma,17 µM
same,GI50,NCI-H226 lung,190 nM
same,TGI,NCI-H226 lung,789 nM
same,GI50,A549 NSCLC,432 nM
same,TGI,A549 NSCLC,2160 nM
same,GI50,RPMI-8226 leukemia,343 nM
same,TGI,RPMI-8226 leukemia,6.76 µM
same,GI50,HT29 colon,709 nM
same,TGI,HT29 colon,11.6 µM
same,GI50,BT-549 breast,1470 nM
same,TGI,BT-549 breast,11.6 µM
